# Where no end group is shown, it is not given here.
# Assays:
# S. pullorum C79-13 = type: cell-based, Salmonella pullorum; settings: C79-13, 24 h
# Method: (§1) Three types of Gram-positive bacteria (Staphylococcus epidermidis ATCC 12228, Staphylococcus aureus 29213 and Enterococcus faecalis ATCC 29212) and four types of Gram-negative bacteria (Escherichia coli UB1005, Escherichia coli ATCC 25922, Salmonella typhimurium ATCC 14028 and Salmonella pullorum C79–13) preserved in our lab were cultured in the medium of Muller-Hinton broth (MHB) medium (1.75% casamino acid, 0.2% beef extract, 0.15% soluble starch, pH 7.0). The murine macrophage cell line RAW 264.7 cells were procured from the American Type Culture Collection (Manassas, VA, United States) and cultured in DMEM containing 10% fetal bovine serum […], penicillin (100 units/ml) and streptomycin (100 units/ml) in 5% CO2 at 37°C.
# (§2) The antimicrobial activity of peptides was examined against representative strains of Gram-positive bacteria (S. aureus ATCC 29213, S. epidermidis ATCC 12228 and E. faecalis ATCC 29212) and Gram-negative bacteria (E. coli ATCC 25922, E. coli UB1005, S. pullorum C79–13, and S. typhimurium ATCC 14028) which were cultured in MHB medium. Antimicrobial activity assay was performed according to a modified version of broth microdilution method ([Gao et al., 2015]). When grown to an OD600 of 0.4, the bacterial stains cultured in MHB were diluted to a final concentration of about 1 × 10^5 CFU/ml. Fifty microliter of microbial solution and 50 μl of two-fold diluted concentrations of peptides [0.2% (w/v) bovine serum albumin, 0.01% (v/v) acetic acid] were mixed in the sterile 96-well plate and cultured at 37°C for 24 h. MICs were identified as the lowest peptide concentration that no bacteria growth was observed by OD determination (492 nm). Each experiment was performed in triplicate. The geometric mean (GM) of the MICs of a peptide was calculated on the MIC values of the peptide against all tested bacteria, and was used to evaluate the antimicrobial activity of the peptide. The therapeutic index (TI) was defined as the ratio of the minimum hemolytic concentration (MHC) to the GM and was used to measure the peptide cell selectivity toward the component with negative charge of bacterial cell membranes over the zwitterionic membranes mammalian cells. TI was calculated as the ratio of the HC10 (the peptide concentration needed to reach 10% lysis of hRBCs) value to the GM (TI = HC10/GM).
# [1] = system: Human red blood cells (hRBCs); type: cell-based; settings: for MHC (minimum hemolytic concentration): red cells of human, 1 h
# Method: The hemolytic activity assay of these peptides was performed according to the method of [Gao et al. (2015)]. Human red blood cells (hRBCs) donated by a healthy adult were collected by centrifugation and washed by phosphate-buffered saline (PBS) solution (pH 7.2). 1% (v/v) suspension of hRBCs in PBS was incubated with different concentrations of peptides dissolved in PBS for 1 h at 37°C. Absorbance in the supernatant was monitored at 405 nm. hRBCs in 0.1% Triton X-100 and PBS were used as positive and negative controls, respectively. The hemolysis percentage was calculated as follows:
# %hemolysis=[A-sampleA]blank/[A-TritonA]blank×100.
# FIGURE 1 Hemolytic and toxicity activity of the peptides. (A,B) Hemolytic activity against hRBCs. (C,D) Toxicity activity against RAW264.7 cells. Hemolytic activity was evaluated by incubating individual peptides in serial 2-fold dilutions with freshly isolated hRBCs at 37°C for 1 h, followed by measuring the released hemoglobin at 405 nm. For negative and positive controls, hRBCs in PBS and 0.1% Triton X-100 were used, respectively. Toxicity activity of the peptides against RAW264.7 was determined using MTT method. The peptides were incubated with RAW264.7 in a 96-well microtiter plate. After incubation with MTT, the supernatant was discarded and DMSO was added and the optical density (OD) at 570 nm was measured.
# [2] = system: S. epidermidis ATCC 12228; type: cell-based, Staphylococcus epidermidis; settings: ATCC 12228, 24 h
# Method: as §1, §2
# S. aureus ATCC 29213 = type: cell-based, Staphylococcus aureus; settings: ATCC 29213, 24 h
# Method: as §1, §2
# [3] = system: S. typhimurium ATCC 14028; type: cell-based, Salmonella typhimurium; settings: ATCC 14028, 24 h
# Method: as §1, §2
# E. faecalis ATCC 29212 = type: cell-based, Enterococcus faecalis; settings: ATCC 29212, 24 h
# Method: as §1, §2
# all tested bacteria = assay: MIC over all tested bacteria (geometric mean); type: cell-based; settings: calculated on the MIC values against all tested bacteria (7 strains)
# Method: as §1, §2
# E. coli UB1005 = type: cell-based, Escherichia coli; settings: UB1005, 24 h
# Method: as §1, §2
# E. coli ATCC 25922 = type: cell-based, Escherichia coli; settings: ATCC 25922, 24 h
# Method: as §1, §2
# [4] = system: BALB/c mice challenged with lethal dose of LPS; assay: Protection of mice from LPS-induced lethal infection; type: in vivo; settings: male BALB/c mice, LPS 20 mg/kg i.p.; PMB 2.5 mg/kg or peptide 10 mg/kg i.p. 1 h after challenge
# Method: The 6–8 week-old male BALB/c mice (purchased from Charles River Laboratories, Beijing, China) were used to investigate the protective effect in vivo of peptides on LPS-induced infection. All animals were raised under specific pathogen-free conditions and the protocol was authorized by the Animal Care Committee of Northeast Agricultural University. Mice were divided into four groups (12 mice per group). 1 h after a challenge with a lethal dose of LPS intraperitoneal injection (20 mg/kg⋅body weight), 4 groups of mice were injected intraperitoneally with 0.5 ml PBS, PMB (2.5 mg/kg⋅body weight), dCATH(1–16) or dCATH(5–20) (10 mg/kg⋅body weight). General behavior, onset and course of clinical disease and mortality of mice were observed every 12 h for a period of 7 days.
# FIGURE 8 Survival of mice from LPS-induced lethal infection by dCATH(1–16) or dCATH(5–20). Mice were subjected to a lethal dose of LPS, followed by i.p. injection of CATH(1–16) or dCATH(5–20) at 10 mg/kg or an equal volume of PBS as controls (n = 12). Survival was recorded every 12 h over 7 days.
Substance,MIC S. pullorum C79-13 (S. pullorum C79-13) [µM],hemolytic activity (in words) [1],MHC (minimum hemolytic concentration) [1] [µM],MIC S. epidermidis ATCC 12228 [2] [µM],MIC S. aureus ATCC 29213 (S. aureus ATCC 29213) [µM],MIC S. typhimurium ATCC 14028 [3] [µM],MIC E. faecalis ATCC 29212 (E. faecalis ATCC 29212) [µM],GM (geometric mean of the MICs) (all tested bacteria) [µM],MIC E. coli UB1005 (E. coli UB1005) [µM],MIC E. coli ATCC 25922 (E. coli ATCC 25922) [µM],onset and symptoms of disease (in words) [4]
KRFWQLVPLAIKIYRAWK-NH2 [dCATH(1–18)],2,obvious hemolytic activity,8,2,2,2,2,1.81,2,1,–
KRFWQLVPLAIKIYRAWKRR-NH2 [dCATH],4,obvious hemolytic activity,4,4,4,8,4,3.62,2,2,–
KRFWQLVPLAIKIYRA-NH2 [dCATH(1–16)],4,–,–,8,8,4,8,4.88,4,2,–
QLVPLAIKIYRAAKRR-NH2 [dCATH(5–20)-17A],–,negligible hemolytic activity,–,32,32,64,32,70.66,–,64,–
FWQLVPLAIKIYRAWKRR-NH2 [dCATH(3–20)],2,obvious hemolytic activity,4,1,2,4,2,1.81,2,1,–
QLVPLAIKIYRAWKRR-NH2 [dCATH(5–20)],8,–,128,4,2,4,4,3.28,4,1,–
KRFAQLVPLAIKIYRAAKRR-NH2 [dCATH-AA],32,negligible hemolytic activity,–,64,64,64,32,39.01,16,32,–
polymyxin B [PMB],–,–,–,–,–,–,–,–,–,–,delayed the onset of disease of mice with less severe symptoms
KRFWQLVPLAIKIYRAW-NH2 [dCATH(1–17)],4,obvious hemolytic activity,8,4,2,4,2,2.21,1,1,–
QLVPLAIKIYRA-NH2 [dCATH(5–16)],–,negligible hemolytic activity,–,–,–,–,–,190.21,128,64,–
WQLVPLAIKIYRAWKRR-NH2 [dCATH(4–20)],4,obvious hemolytic activity,16,4,2,2,2,2.44,4,1,–
KRFAQLVPLAIKIYRA-NH2 [dCATH(1–16)-4A],64,negligible hemolytic activity,–,64,128,64,32,47.55,32,16,–

# From article PMC7326067, “The Critical Role of Tryptophan in the Antimicrobial Activity and Cell Toxicity of the Duck Antimicrobial Peptide DCATH” (Frontiers in Microbiology, 2020)
